≈ marks a conversion by molar mass, not a printed value.
How the values were obtained:
LS174T [1] = assay: Compound was evaluated for in vitro cytotoxicity after 48 hour, against CEA-bearing LS174T human colon carcinoma cells, in absence of beta-L-CEM 231 conjugate; assay type: functional, cell-based
LS174T [2] = assay: Compound was evaluated for in vitro cytotoxicity after 6 hour, against CEA-bearing LS174T human colon carcinoma cells, in absence of beta-L-CEM 231 conjugate; assay type: functional, cell-based

SMILES	IC50 (LS174T [1]) [µg/mL]	IC50 (LS174T [2]; ls174t) [µg/mL]	IC50 (LS174T [2]; Homo sapiens, LS174T, 6 h, read-out: IC50) [µg/mL]
CC[C@]1(O)C[C@@H]2CN(CCc3c([nH]c4ccccc34)[C@@](C(=O)OC)(c3cc4c(cc3OC)N(C)C3[C@]45CCN4CC=C[C@@](CC)([C@@H](O)[C@]3(O)C(=O)NCCSCC3=C(C(=O)O)N6C(=O)[C@@H](NC(=O)Cc7cccs7)[C@H]6SC3)[C@H]45)C2)C1 (single isomer, unassigned; (-))	< 0.001	2.15 (≈ 1.87 µM)	–
CC[C@]1(O)C[C@@H]2CN(CCc3c([nH]c4ccccc34)[C@@](C(=O)OC)(c3cc4c(cc3OC)N(C)C3[C@]45CCN4CC=C[C@@](CC)([C@@H](O)[C@]3(O)C(=O)NCCSCC3=C(C(=O)O)N6C(=O)[C@@H](NC(=O)Cc7cccs7)[C@H]6SC3)[C@H]45)C2)C1 (single isomer, unassigned; (+))	–	0.26 (≈ 0.226 µM)	–
CC[C@]1(O)C[C@@H]2CN(CCc3c([nH]c4ccccc34)[C@@](C(=O)OC)(c3cc4c(cc3OC)N(C)C3[C@]45CCN4CC=C[C@@](CC)([C@@H](O)[C@]3(O)C(=O)NCCS)[C@H]45)C2)C1 (stereo not given in full)	< 0.001	–	0.26 (≈ 0.319 µM)

— ChEMBL document CHEMBL1125938, “A novel targeted delivery system utilizing a cephalosporin-oncolytic prodrug activated by an antibody -lactamase conjugate for the treatment of cancer” (Bioorg Med Chem Lett, 1991)
